Literature values in patent US20080200497A1, “Hepatitis C Inhibitor Peptide Analogs” (priority 2005, published 2008).

System: hepatitis C virus
Conditions: two day clinical trial, patients infected with the hepatitis C virus

## COc1ccc2c(O[C@@H]3C[C@H]4C(=O)N[C@]5(C(=O)O)C[C@H]5/C=C\CCCCC[C@H](NC(=O)OC5CCCC5)C(=O)N4C3)cc(-c3csc(NC(C)C)n3)nc2c1 [BILN 2061]
  reduction of viral loads: effective in rapidly reducing viral loads
